Experimental data published in patent US20260234165A1, “MACROCYCLIC COMPOUNDS, PREPARATION METHOD THEREFOR, AND USE THEREOF” (GENFLEET THERAPEUTICS (SHANGHAI) INC., priority 2004, published 2026).

Test: Pharmacokinetic study in rats
Type: in vivo, Sprague-Dawley (SD) rats
Conditions: Sprague-Dawley, rat, plasma, male SD rats
Source text: A total of 6 healthy adult male Sprague-Dawley (SD) rats were provided by Zhejiang Vital River Laboratory Animal Technology Co., Ltd. For each test compound, 6 healthy adult male SD rats were selected and randomly divided into 2 groups: an intravenous administration (IV) group and an intragastric administration (PO) group. The LC-MS/MS method was used to determine the drug concentrations in the plasma of rats at different time points after intravenous and intragastric administration of the test compounds. This experiment was intended to investigate the pharmacokinetic performance of the test compounds in rats and to evaluate the pharmacokinetic characteristics. Each drug used in the experiment was prepared from the test compound powder: An appropriate amount of test compound powder was weighed out, and appropriate amounts of DMSO, a 10% aqueous Solutol HS 15 solution, and a 6% aqueous HP-β-CD solution were sequentially added according to a volume ratio of 5:10:85. The mixture was vortexed and sonicated until clarification. The final concentration of the drug in the IV group was 0.5 mg/mL, and the final concentration of the drug in the PO group was 1 mg/mL; the concentrations could be adjusted according to actual needs. For the drug in the PO group of Z504, an appropriate amount of test compound powder was weighed out, and an appropriate amount of 0.5% MC+0.2% Tween 80 aqueous solution was added. The mixture was well mixed by vortexing to give a 1 mg/mL homogeneous suspension: the concentration could be adjusted according to actual needs.
All experimental rats were fasted overnight, and food intake was resumed 4 h after administration. For the rats in the IV group, the administration volume was set at 2 mL/kg, with Z554 and Z915 administered at a dose of 0.5 mg/kg and the other compounds at a dose of 1 mg/kg. For the rats in the PO group, the administration volume was 10 mL/kg and the dose was 10 mg/kg. The administration amount was adjusted according to the body weight of the rats on the day of administration. In the experiment, blood samples were collected from the rats in the IV group at multiple time points (0.0833 h, 0.25 h, 0.5 h, 1 h, 2 h, 4 h, 7 h, and 24 h) after administration, while blood samples were collected from the PO group at 0.25 h, 0.5 h, 1 h, 2 h, 4 h, 7 h, and 24 h after administration, with approximately 100 μL collected each time via the orbital blood collection method.
The blood samples were placed in centrifuge tubes containing EDTA-K2 and centrifuged at 8000 rpm for 4 min within 30 min to separate the supernatant plasma. The resulting plasma samples were stored at −20° C. for later use. For sample analysis, 20 μL of each of plasma samples and calibration standards was added to a 96-well plate, and 160 μL of acetonitrile containing 100 ng/mL tolbutamide was added. The samples were vortexed for 5 min for uniform mixing, and then centrifuged at 4000 rpm for 15 min. After the centrifugation was completed, 50 μL of supernatant was added to a 96-well plate containing 150 μL of deionized water. The plate was then sealed and shaken for uniform mixing. Sample analysis was performed by LC-MS/MS.
The sampling volume could be adjusted according to actual needs, but the final concentration should be kept unchanged.

- clearance (IV, dose 1 mg/kg): 1.83 mL/min/kg
- AUC (PO (intragastric), dose 10 mg/kg, read-out: AUC): 8400 ng·h/mL
- Cmax (PO (intragastric), dose 10 mg/kg, read-out: Cmax): 1110 ng/mL
SMILES: CCn1c(-c2cc(C#CCN3CCCOCC3)cnc2[C@H](C)OC)c2c3cc(ccc31)-c1csc(n1)C[C@H](NC(=O)CC(C)C)C(=O)N1CCC[C@H](N1)C(=O)OCC(C)(C)C2 (single isomer, unassigned) [Compound Z803]
